From the supplement of paper PMC8671470

Legend:
Assay in all cases: cell viability (% survival relative to DMSO control); higher = less cytotoxic
Conditions in all cases: 72 h
HL-60 = test system: HL-60
Procedure: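 8x8 drug-combination matrices (0-5000 nM; rosiglitazone and lestaurtinib 0-1000 nM) were run in HL-60 cells for 72 h with a CellTiter-Glo read-out. Survival is normalised to DMSO and 10 µM bortezomib and clipped at 100%. Bliss synergy was analysed in SynergyFinder.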

Mono-Mac-6 = test system: Mono-Mac-6
Procedure: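 8x8 drug-combination matrices (0–5000 nM; rosiglitazone and lestaurtinib 0–1000 nM) were run in Mono-Mac-6 cells for 72 h with CellTiter-Glo read-out. Survival is normalised to DMSO and 10 µM bortezomib and clipped at 100%.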

MV4-11 = test system: MV4-11
Procedure: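 8x8 drug-combination matrices (0–5000 nM; rosiglitazone and lestaurtinib 0–1000 nM) were run in MV4-11 cells for 72 h with CellTiter-Glo read-out. Survival is normalised to DMSO and 10 µM bortezomib and clipped at 100%.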

Oc1ncc(F)c(O)n1 [5-fluorouracil] + C[C@]12O[C@H](C[C@]1(O)CO)n1c3ccccc3c3c4c(c5c6ccccc6n2c5c31)CNC4=O [Lestaurtinib]
cell viability [%]
Conditions | drug1 concentration 5 nM | drug1 concentration 10 nM | drug1 concentration 50 nM | drug1 concentration 100 nM | drug1 concentration 500 nM | drug1 concentration 1000 nM | drug1 concentration 5000 nM
HL-60, drug2 concentration 1 nM | > 100 | > 100 | 53 | > 100 | 89.7 | 66.2 | 62.9
HL-60, drug2 concentration 5 nM | > 100 | 79.6 | > 100 | 71.6 | 91.6 | 64.7 | 80.9
HL-60, drug2 concentration 10 nM | 73.2 | 98.7 | > 100 | > 100 | 84.2 | 50.3 | 66.5
HL-60, drug2 concentration 50 nM | 72 | 85.6 | 56.1 | 67.8 | 53.5 | 77.1 | 43
HL-60, drug2 concentration 100 nM | 60.5 | 67.5 | 68.8 | 63.6 | 74.3 | 51.8 | 32.6
HL-60, drug2 concentration 500 nM | 32.8 | 32.6 | 48.9 | 41.5 | 35.7 | 33.5 | 26.1
HL-60, drug2 concentration 1000 nM | 8.89 | 19.8 | 19.4 | 20.8 | 52.9 | 25.7 | 0
MV4-11, drug2 concentration 1 nM | 88.4 | > 100 | > 100 | 88.1 | 69.4 | 68.5 | 12.8
MV4-11, drug2 concentration 5 nM | 70.5 | 43 | 50.6 | 46 | 55.2 | 41.9 | 21.9
MV4-11, drug2 concentration 10 nM | 26.4 | 23.6 | 28.6 | 42.1 | 19 | 25.7 | 13.7
MV4-11, drug2 concentration 50 nM | 2.49 | 4.72 | 2.14 | 3.46 | 4.09 | 5.74 | 1.61
MV4-11, drug2 concentration 100 nM | 3.32 | 0.99 | 1.1 | 1.76 | 0.68 | 3.09 | -0.36
MV4-11, drug2 concentration 500 nM | 0.17 | -0.1 | 1.37 | 1.89 | 0.91 | 0.05 | 0.08
MV4-11, drug2 concentration 1000 nM | -1.49 | -0.48 | 0.53 | 3.29 | 2.21 | 1.49 | 0.17
Mono-Mac-6, drug2 concentration 1 nM | > 100 | > 100 | > 100 | 98 | 81.7 | 66.8 | 43.8
Mono-Mac-6, drug2 concentration 5 nM | > 100 | 62.4 | 76.5 | 65.3 | 69.7 | 54.7 | 48
Mono-Mac-6, drug2 concentration 10 nM | 58.5 | 59.6 | 61.9 | 68 | 42.9 | 54.4 | 50.9
Mono-Mac-6, drug2 concentration 50 nM | 20.5 | 20.9 | 19 | 21.8 | 19.7 | 19.4 | 21.1
Mono-Mac-6, drug2 concentration 100 nM | 15.4 | 11.6 | 14.2 | 12.9 | 8.95 | 10.9 | 7.36
Mono-Mac-6, drug2 concentration 500 nM | 1.8 | 1.6 | 3.44 | 3.7 | 1.89 | 2.85 | 1.13
Mono-Mac-6, drug2 concentration 1000 nM | -0.9 | 1.2 | 0.62 | 2.92 | 5.56 | 0.83 | 0

CN(C)CCNC(=O)c1cccn2c(=O)c3cc4ccccc4cc3nc12 [Bmh-21] + O=C(O)CC[N+](=O)[O-] [3-nitropropionic acid]
cell viability [%]
Conditions | drug1 concentration 5 nM | drug1 concentration 10 nM | drug1 concentration 50 nM | drug1 concentration 100 nM | drug1 concentration 500 nM | drug1 concentration 1000 nM | drug1 concentration 5000 nM
HL-60, drug2 concentration 5 nM | 76.1 | > 100 | > 100 | > 100 | 34.7 | 29.4 | 11.4
HL-60, drug2 concentration 10 nM | 85.5 | > 100 | > 100 | 89.3 | 54.7 | 48.5 | 34
HL-60, drug2 concentration 50 nM | 90.2 | 83.1 | > 100 | > 100 | 57 | 52.6 | 7.17
HL-60, drug2 concentration 100 nM | > 100 | > 100 | > 100 | > 100 | 45.9 | 28.8 | 4.7
HL-60, drug2 concentration 500 nM | > 100 | > 100 | 81.7 | > 100 | 53.9 | 70 | 13.8
HL-60, drug2 concentration 1000 nM | > 100 | 62.9 | > 100 | > 100 | 77.4 | 1.67 | 50.4
HL-60, drug2 concentration 5000 nM | > 100 | > 100 | 68.7 | > 100 | 22 | 24.2 | 0
MV4-11, drug2 concentration 5 nM | 92.2 | > 100 | 96.9 | 80.6 | 72.2 | 88.4 | 29.9
MV4-11, drug2 concentration 10 nM | > 100 | > 100 | > 100 | > 100 | 39.5 | 77.4 | 34.1
MV4-11, drug2 concentration 50 nM | 91.9 | 88.3 | 90.3 | > 100 | 73.8 | 78.7 | 57.4
MV4-11, drug2 concentration 100 nM | 81.9 | > 100 | > 100 | 93.2 | 77.6 | 84.5 | 91.6
MV4-11, drug2 concentration 500 nM | > 100 | 99.8 | 96.2 | 95.9 | > 100 | 96.8 | 11.1
MV4-11, drug2 concentration 1000 nM | 90.9 | 89.5 | > 100 | 98.2 | > 100 | 57.3 | 68.4
MV4-11, drug2 concentration 5000 nM | > 100 | 77.9 | 66.9 | > 100 | 62.8 | 59.4 | 43.1
Mono-Mac-6, drug2 concentration 5 nM | 76.5 | > 100 | > 100 | 83.1 | 56.5 | 60.2 | 63.5
Mono-Mac-6, drug2 concentration 10 nM | > 100 | > 100 | > 100 | > 100 | 70.1 | 83.3 | 45.7
Mono-Mac-6, drug2 concentration 50 nM | > 100 | 91.1 | 87 | > 100 | 63.6 | 67.4 | 49.9
Mono-Mac-6, drug2 concentration 100 nM | 98.2 | > 100 | > 100 | 79.8 | 73.9 | 74.2 | > 100
Mono-Mac-6, drug2 concentration 500 nM | 90.6 | > 100 | 91.9 | > 100 | > 100 | 72.2 | 44.8
Mono-Mac-6, drug2 concentration 1000 nM | 96.3 | 97 | 88.2 | 90.7 | > 100 | 83.4 | 83.5
Mono-Mac-6, drug2 concentration 5000 nM | > 100 | 76.8 | > 100 | > 100 | 67.5 | 61 | 69.3

CN(C)C(=O)n1nnnc1Cc1ccc(-c2ccccc2)cc1 + CCOC(=O)N1c2ccc(C(F)(F)F)cc2[C@@H](N(Cc2cc(C(F)(F)F)cc(C(F)(F)F)c2)C(=O)OC)C[C@H]1CC [Torcetrapib]
cell viability [%]
Conditions | drug1 concentration 5 nM | drug1 concentration 10 nM | drug1 concentration 50 nM | drug1 concentration 100 nM | drug1 concentration 500 nM | drug1 concentration 1000 nM | drug1 concentration 5000 nM
HL-60, drug2 concentration 5 nM | 89.2 | > 100 | 64.3 | > 100 | 94.3 | > 100 | 8.91
HL-60, drug2 concentration 10 nM | > 100 | > 100 | > 100 | > 100 | > 100 | 90 | 15.4
HL-60, drug2 concentration 50 nM | 81.6 | > 100 | 86.8 | 80.8 | 79.3 | 87.4 | 6.94
HL-60, drug2 concentration 100 nM | 91.3 | > 100 | > 100 | 82.7 | > 100 | 80 | 14.4
HL-60, drug2 concentration 500 nM | > 100 | > 100 | > 100 | > 100 | > 100 | 85 | 6.21
HL-60, drug2 concentration 1000 nM | > 100 | > 100 | > 100 | > 100 | 98.3 | > 100 | 13
HL-60, drug2 concentration 5000 nM | > 100 | > 100 | > 100 | > 100 | > 100 | 78.8 | 0
MV4-11, drug2 concentration 5 nM | > 100 | 95 | > 100 | 89.1 | 76.8 | > 100 | 0.81
MV4-11, drug2 concentration 10 nM | 94.9 | 96 | > 100 | 85 | 74.3 | 79.8 | 3.27
MV4-11, drug2 concentration 50 nM | > 100 | > 100 | > 100 | 87.6 | 88.5 | 97.3 | 4.29
MV4-11, drug2 concentration 100 nM | > 100 | > 100 | > 100 | > 100 | > 100 | 77.1 | 1.95
MV4-11, drug2 concentration 500 nM | > 100 | > 100 | > 100 | 98 | > 100 | > 100 | 1.23
MV4-11, drug2 concentration 1000 nM | 98 | 99.8 | 85.5 | 93 | 99.7 | > 100 | 2.41
MV4-11, drug2 concentration 5000 nM | 98.2 | > 100 | > 100 | 98.2 | > 100 | 94.2 | 2.53
Mono-Mac-6, drug2 concentration 5 nM | > 100 | > 100 | > 100 | > 100 | 82.7 | 86.1 | -0.88
Mono-Mac-6, drug2 concentration 10 nM | 93 | 86.3 | > 100 | 92 | 69 | 90.7 | 0.43
Mono-Mac-6, drug2 concentration 50 nM | > 100 | 89.7 | 93.7 | 95.9 | > 100 | 58.1 | 1.57
Mono-Mac-6, drug2 concentration 100 nM | 89 | > 100 | > 100 | > 100 | > 100 | 96.6 | 0.14
Mono-Mac-6, drug2 concentration 500 nM | 91.9 | > 100 | > 100 | 97 | > 100 | > 100 | 0.52
Mono-Mac-6, drug2 concentration 1000 nM | 99.7 | 86.5 | 98.8 | > 100 | > 100 | > 100 | 2.08
Mono-Mac-6, drug2 concentration 5000 nM | 90.6 | 88.3 | > 100 | 93.4 | > 100 | 74.2 | 0
